According to patent US20050059658A1, “Pyridazinone” (priority 2001, published 2005):

Legend:
[1] = system: Human cytomegalovirus (HCMV), DavisSmith strain; experiment: HCMV xenograft Gelfoam model; assay type: in vivo, immunodeficient mice; settings: perorally three times a day for 8 days, SCID mice, HCMV-infected NHDF cells in Gelfoam sponge
Text: Female immunodeficient mice (16-18 g), Fox Chase SCID or Fox Chase SCID-NOD or SCID-beige, 3-4 weeks old, are obtained from commercial breeders (Bomholtgaard, Jackson). The animals are kept under sterile conditions (including litter and feed) in isolation units.
Human cytomegalovirus (HCMV), DavisSmith strain, is cultivated in vitro on embryonal human dermal fibroblasts (NHDF cells). Following infection of the NHDF cells with a multiplicity of infection (M.O.I.) of 0.01, the virus-infected cells are harvested after 5-7 days and, in the presence of minimal essential medium (MEM), 10% fetal calf serum (FCS) with 10% DMSO, stored at −40° C. Following serial dilution of the virus-infected cells in steps of ten, the titer is determined on 24-well plates of confluent NHDF cells after vital stain with Neutral Red.
Collagen sponges (Gelfoam®; from Peasel & Lorey, order No. 40734; K. T. Chong et al., Abstracts of 39th Interscience Conference on Antimicrobial Agents and Chemotherapy, 1999, p. 439) of a size of 1×1×1 cm are initially wetted with phosphate-buffered saline (PBS), the enclosed air bubbles are removed by degassing and the sponges are then stored in MEM+10% FCS. […] What is determined is the number of infectious virus particles after substance treatment compared to the placebo-treated control group.

[2] = Cytotoxicity on NHDF cells in the anti-HCMV cytopathogenicity test; assay type: cell-based; settings: human, NHDF cells (normal human dermal fibroblasts), 6 days incubation, visual evaluation
Procedure: (§1) The test compounds are used as 50 millimolar (mM) solutions in dimethyl sulfoxide (DMSO). The reference compounds used are ganciclovir, foscarnet and cidofovir. In each case 2 μl of the 50, 5, 0.5 and 0.05 mM DMSO stock solutions are added to in each case 98 μl of cell culture medium in row […] in duplicate, and 1:2 dilutions with in each case 50 μl of medium are then made up to row 11 of the 96-well plate. The wells in rows 1 and 12 each contain 50 μl of medium. In each case 150 μl of a suspension of 1×10^4 cells (NHDF=normal human dermal fibroblasts) (row 1 =cell control) and, for rows 2-12, a mixture of HCMV-infected and non-infected NHDF cells (M.O.I.=0.001-0.002), i.e. 1-2 infected cells per 1000 non-infected cells, are then pipetted into the wells. Row 12 (without substance) serves as virus control. The final test concentrations are 250-0.0005 μM. The plates are incubated at 37° C./5% CO2 for 6 days, i.e. until all cells in the virus controls are infected (100% cytopathogenic effect [CPE]). The wells are then fixed by adding a mixture of formalin and Giemsa's dye and stained (30 minutes), washed with doubly distilled water and dried in a drying cabinet at 50° C. The plates are then examined visually using an overhead microscope (Plaque multiplier from Technomara). Using the test plates, the following data can be determined: • CC50 (NHDF)=substance concentration in μM where, compared to the untreated cell control, no cytostatic effects on the cells are evident; • EC50 (HCMV)=substance concentration in μM where the CPE (cytopathic effect) is inhibited by 50% compared to the untreated virus control; • SI (selectivity index)=CC50 (NHDF)/EC50 (HCMV). In vivo Action: HCMV Xenograft Gelfoam® Model: Animals: […]

[3] = system: human cytomegalovirus (HCMV); experiment: Anti-HCMV (anti-human cytomegalovirus) cytopathogenicity test; assay type: cell-based; settings: for EC50: Human betaherpesvirus 5, 144 h, HCMV-infected NHDF cells, M.O.I. 0.001-0.002, 6 days, 50% inhibition of CPE; for SI HCMV: selectivity index = CC50 (NHDF)/EC50 (HCMV)
Procedure: as §1

## CC1(C)CC(=O)NN=C1c1cccc(NC(=O)Nc2ccc(F)cc2F)c1 [Example 1, N-(2,4-Difluorophenyl)-N′-[3-(4,4-dimethyl-6-oxo-1,4,5,6-tetrahydro-3-pyridazinyl)-phenyl]urea]
[1]
  Murine xenograft model ED50 t.i.d.: 18 mg]kg
other
  melting point: 213 °C
[2]
  CC50 at 6 days: 125 µM
[3]
  EC50: 0.96 µM
  SI HCMV: 130

## CC1(C)CC(=O)NN=C1c1cccc(NC(=O)Nc2ccc(F)c(Cl)c2)c1 [Example 2, N-(3-Chloro-4-fluorophenyl)-N′-[3-(4,4-dimethyl-6-oxo-1,4,5,6-tetrahydro-3-pyridazinyl)phenyl]urea]
[2]
  CC50 at 6 days: 23 µM
[3]
  EC50: 0.07 µM
  SI HCMV: 329

## CC1(C)CC(=O)NN=C1c1cccc(NC(=O)Nc2cccc(Br)c2)c1 [Example 3, N-(3-Bromophenyl)-N′-[3-(4,4-dimethyl-6-oxo-1,4,5,6-tetrahydro-3-pyridazinyl)-phenyl]urea]
other
  melting point: 207 °C
[2]
  CC50 at 6 days: 24 µM
[3]
  EC50: 0.13 µM
  SI HCMV: 185

## Cc1cc(Cl)ccc1NC(=O)Nc1cccc(C2=NNC(=O)CC2(C)C)c1 [Example 4, N-(4-Chloro-2-methylphenyl)-N′-[3-(4,4-dimethyl-6-oxo-1,4,5,6-tetrahydro-3-pyridazinyl)phenyl]urea]
[1]
  Murine xenograft model ED50 t.i.d.: 8 mg]kg
other
  melting point: 232 °C
[2]
  CC50 at 6 days: > 23 µM
[3]
  EC50: 0.15 µM
  SI HCMV: >153

## CC1(C)CC(c2ccccc2NC(=O)Nc2ccc(F)cc2F)=NNC1=O [Example 5, N-(2,4-Difluorophenyl)-N′-[2-(5,5-dimethyl-6-oxo-1,4,5,6-tetrahydro-3-pyridazinyl)-phenyl]urea]
[2]
  CC50 at 6 days: 125 µM
[3]
  EC50: 6.1 µM
  SI HCMV: 21

## CC1(C)CC(c2cccc(NC(=O)Nc3ccc(F)c(F)c3)c2)=NNC1=O [Example 6, N-(3,4-Difluorophenyl)-N′-[3-(5,5-dimethyl-6-oxo-1,4,5,6-tetrahydro-3-pyridazinyl)-phenyl]urea]
other
  melting point: 200 °C
